The text below walks through data of patent USRE45907E1, “Functionalized stilbene derivatives as improved vascular targeting agents” (OXiGENE, Inc., priority 2001, dated 2016).

pIC50: −log10 of the molar value. Where a name gives a salt, the structure may show the parent alone. Read-outs that look alike come from different tables or passages of the source.

Test [1] is classed as cell-based. The method, then:
Exponentially growing were treated with the following compounds for 1 hour and 5 days. Insoluble compounds were formulated in a small amount (0.3%) of DMSO for biological evaluation. Cell viability was determined by the calorimetric MTT assay using 3(4,5-dimethylthiazol-2-yl)-2,5-diphenyl-2H-tetrazolium bromide according to well-established procedures (see Berridge, et al. (1996) for a general protocol of this type of assay).

Test [2] concerns MHEC-5T hemangioendothelioma tumor. Type of test: in vivo. The following applies: 100 mg/kg single i.p. dose, 24 hours post-treatment, SCID mice with MHEC5-T tumor. The method, then:
The vascular effects of the following compounds were assessed in tumor-bearing mice using a fluorescent-bead assay. A MHEC-5T hemangioendothelioma tumor model was established by subcutaneous injection of 0.5×10^6 cultured MHEC5-T cells into the right flank of Fox Chase CB-17 SCID mice and allowed to grow to a size of 300 mm^3 before i.p. injection with a single dose of saline control or compound. At 24 hours post-treatment, mice were i.v. injected with 0.25 ml of diluted FluoSphere beads (1:6 in physiological saline) in the tail vein, and sacrificed after 3 minutes. Tumor cryosections at a thickness of 8 um were directly examined using quantitative fluorescent microscopy. For quantification, image analysis of 3 sections from three tumor treated in each group were examined and vascular shutdown was expressed a vessel area per tissue area (mm^2) in percentage of the control.

The test system of test [3] is human cancer cell lines. Description: MTT cytotoxicity of combretastatins and prodrugs (Table 1). Type of test: cell-based.
Test [4] relates to tubulin. The experiment in a line: Inhibition of tubulin polymerization. Type of test: biochemical.
The mark [5] stands for this setting: treated for 1 hour, read-out: IC50 @ 1 h.
Where [6] appears, read: treated for 5 days, read-out: IC50 @ 5 days.
Setting [7] is: 1 h, read-out: MTT Cytotoxicity (IC50) at 1 hour.
The mark [8] stands for this setting: 5 h, read-out: MTT Cytotoxicity (IC50) at 5 hours.

For the compound `COc1ccc(/C=C\c2cc(OC)c(OC)c(OC)c2)c(O)c1` [ZSB-46A, 2′-Hydroxy-3,4,4′,5-tetramethoxy-(Z)-stilbene], the pIC50 – broadly, the IC50 on a negative log10 scale, so that one unit is a factor of ten – is 4.37 in test [1] (setting [5]) and 7.17 in test [1] (setting [6]).

As for “CA4P n-Octyl Ester, Ammonium Salt [Oxi-com210]”, the “% Blood Flow Shutdown (100 mg/kg)” value in test [2] came to 89%.

As to `COc1ccc(/C=C\c2cc(OC)c(OC)c(OC)c2)cc1O` [CA-4, Combretastatin A-4], the pIC50 in test [3] (setting [7]) was 7.00; in test [3] (setting [8]) it was 7.30; in test [4] it was […].

In the case of `COc1cc(/C=C\c2cc(OC)c(OC)c(OC)c2)c(I)cc1OP(=O)([O-])[O-].[Na+].[Na+]` [ZSB-29B, 4′-Disodium Phosphate-2′-Iodo-3,4,5,5′-tetramethoxy-(Z)-stilbene], in test [2], the “% Blood Flow Shutdown (100 mg/kg)” value was 43%.

On to `COc1cc(/C=C\c2ccc(OC)c(OP(=O)([O-])[O-])c2OC)cc(OC)c1OC.[Na+].[Na+]` [ZSB-27B, 3′-Disodium Phosphate-3,3′,4,4′,5-pentamethoxy-(Z)-stilbene], for which, in test [2], the “% Blood Flow Shutdown (100 mg/kg)” value was determined as 41%.

In the case of `COc1ccc(/C=C\c2cc(OC)c(OC)c(OC)c2)c(N)c1` [ZSB-39B, 2′-Amino-3,4,4′,5-tetramethoxy-(Z)-stilbene], in test [2], the “% Blood Flow Shutdown (100 mg/kg)” value is 50%.

Take `COc1ccc(/C=C\c2cc(OC)c(OC)c(OC)c2)cc1OP(=O)(O)O` [CA-4P]: the pIC50 in test [3] (setting [7]) is 6.10; in test [3] (setting [8]) it was 8.70; in test [4], less than 4.40.

For `COc1cc(/C=C\c2cc(O)c(OC)c([N+](=O)[O-])c2)cc(OC)c1OC` [ZSB-43, 3′-Hydroxy, 5′-Nitro-3,4,4′,5-tetramethoxy-(Z)-stilbene], the values for the pIC50 in test [1] (setting [5]) and in test [1] (setting [6]) were 5.10 and 5.89, respectively.

Regarding `COc1cc(OP(=O)([O-])[O-])c(/C=C\c2cc(OC)c(OC)c(OC)c2)cc1OP(=O)([O-])[O-].[Na+].[Na+].[Na+].[Na+]` [ZSB-33B, 2′,5′-Tetrasodium Diphosphate-3,4,4′,5-tetramethoxy-(Z)-stilbene], the “% Blood Flow Shutdown (100 mg/kg)” value in test [2] is 51%.

Consider `COc1ccc(/C=C\c2cc(OC)c(OC)c(OC)c2)cc1OP(=O)(O)OC` [Oxi-com209, CA-4P Methyl Ester, Ammonium Salt], for which the values for the pIC50 in test [1] (setting [5]) and in test [1] (setting [6]) were 4.42 and 7.15, respectively.

As for `COc1ccc(/C=C\c2cc(OC)c(OC)c(OC)c2)c(O)c1O` [CA-1, combretastatin A-1], the pIC50 in test [3] (setting [7]) was 5.00; in test [3] (setting [8]), 7.30; in test [4] it was 5.40 to 5.70. The activity with tubulin entry in test [4] is listed as “active with tubulin”.

In the case of `COc1cc(/C=C\c2ccc(OC)c(OP(=O)(O)O)c2OP(=O)(O)O)cc(OC)c1OC` [CA-1P], the pIC50 in test [3] (setting [7]) is 5.49; in test [3] (setting [8]), 8.34; in test [4], less than 4.40. Also, the activity with tubulin result in test [4] is “not active with tubulin”.

Consider `COc1ccc(/C=C\c2cc(OC)c(OC)c(OC)c2)c(NC(=O)C(N)CO)c1` (centres unmarked) [ZSB-45, 2′serinamide-3,4,4′,5-tetramethoxy-(Z)-stilbene], for which the “% Blood Flow Shutdown (100 mg/kg)” value in test [2] was found to be 43%. The results for the pIC50 in test [1] (setting [5]) and in test [1] (setting [6]) were 5.00 and 7.30, respectively.

As for `COc1ccc(/C=C\c2cc(OC)c(OC)c(OC)c2)c(F)c1O` [ZSB-41A, 2′-Fluoro-3′-Hydroxy-3,4,4′,5-tetramethoxy-(Z)-stilbene], the results for the pIC50 in test [1] (setting [5]) and in test [1] (setting [6]) were 5.10 and 7.82, respectively.

In the case of `COc1ccc(/C=C\c2cc(OC)c(OC)c(OC)c2)c(N)c1N` [ZSB-3B, 2′,3′-Damino-3,4,4′,5-tetramethoxy-(Z)-stilbene], the pIC50 in test [1] (setting [5]) is 5.62; in test [1] (setting [6]) it was 8.37.

Regarding `COc1ccc(/C=C\c2cc(OC)c(OC)c(OC)c2)cc1OP(=O)(O)OC1CCCCC1` [Oxi-com191, CA4P Cyclohexane Ester, Ammonium Salt], the pIC50 is 4.46 in test [1] (setting [5]) and 6.89 in test [1] (setting [6]).

In the case of `COc1ccc(/C=C\c2cc(OC)c(OC)c(OC)c2)c(Br)c1O` [ZSB-16, 2′-Bromo-3′-Hydroxy-3,4,4′,5-tetramethoxy-(Z)-stilbene], the pIC50 in test [1] (setting [5]) was 5.70; in test [1] (setting [6]), 8.17.

In the case of “3′,5′-Tetrasodium Phosphate-3,4,4′,5-tetramethoxy-(Z)-stilbene [ZSB-2B]”, the “% Blood Flow Shutdown (100 mg/kg)” value in test [2] was found to be 65%. Also, the figures for the pIC50 in test [1] (setting [5]) and in test [1] (setting [6]) were 4.60 and 6.00, respectively.

In the case of `COc1ccc(/C=C\c2cc(OC)c(OC)c(OC)c2)c(O)c1Br` [ZSB-26A, 2′ Hydroxy-3′-bromo-3,4,4′,5-tetramethoxy-(Z)-stilbene], the figures for the pIC50 in test [1] (setting [5]) and in test [1] (setting [6]) were 5.51 and 7.80, respectively.
